Assay results from PMC3027604, “Spermine oxidase (SMO) activity in breast tumor tissues and biochemical analysis of the anticancer spermine analogues BENSpm and CPENSpm” (2010).

Columns and labels:
spermine oxidase (mSMO) [1] = target: T1, spermine oxidase (mSMO) (Mus musculus, UniProt Q99K82); experiment: enzyme inhibition of recombinant mSMO with Spm as substrate, Dixon plot; format: biochemical
T1 construct: gene Smox; Murine recombinant SMO

spermine oxidase (mSMO) [2] = target: T1, spermine oxidase (mSMO); experiment: enzyme inhibition of mSMO, Ki in Table […] (reference inhibitor; assay not detailed in Methods); format: biochemical; settings: cited from earlier work

T1 sequence (Q99K82 whole entry): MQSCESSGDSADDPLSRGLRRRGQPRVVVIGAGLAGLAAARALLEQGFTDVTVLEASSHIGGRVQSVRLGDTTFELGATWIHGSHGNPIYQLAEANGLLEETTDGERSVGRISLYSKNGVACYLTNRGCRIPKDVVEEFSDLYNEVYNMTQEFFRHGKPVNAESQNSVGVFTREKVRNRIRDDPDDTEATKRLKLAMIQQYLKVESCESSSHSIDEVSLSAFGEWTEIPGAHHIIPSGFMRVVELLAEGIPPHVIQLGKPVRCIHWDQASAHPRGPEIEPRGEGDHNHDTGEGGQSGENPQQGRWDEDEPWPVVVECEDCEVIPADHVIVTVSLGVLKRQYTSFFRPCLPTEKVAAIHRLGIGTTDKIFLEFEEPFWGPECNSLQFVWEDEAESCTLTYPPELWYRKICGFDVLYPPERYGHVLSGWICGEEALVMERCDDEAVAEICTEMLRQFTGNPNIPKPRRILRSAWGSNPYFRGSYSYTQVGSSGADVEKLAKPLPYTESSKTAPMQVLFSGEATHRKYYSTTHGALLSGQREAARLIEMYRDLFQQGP

Ki (spermine oxidase (mSMO) [1]) | Compound | Ki (spermine oxidase (mSMO) [2])
380 µM | CCNCCCNCCCNCCCNCC [BENSpm] | 
85 µM | CCNCCCNCCCNCCCNCC1CC1 [CPENSpm, N^1-ethyl-N^11-(cyclopropyl)-methyl-4,8-diazaundecane] | 
 | C=C=CCNCCCCNCC=C=C [MDL72527, N^1, N^4-bis(2,3-butadienyl)-1,4butanediamine] | 63 µM
